From patent publication US6191126A, “Topical use of κ opioid agonists to treat ocular pain” (Alcon Laboratories, Inc., priority 1999, dated 2001)

Columns and labels:
[1] = system: formalin-induced ocular pain (blinking); assay: formalin-induced model of ocular pain in the rat (inhibition of blinking after topical ocular dosing); details: in vivo
[2] = system: mu opioid receptor (vs delta and kappa receptors); details: Goodman and Gilman, 8th Edition; cited from earlier work

Row | SMILES | % Inhibition (of blink count in first minute vs vehicle) [1] | times greater affinity for the mu receptor than for the delta and kappa receptors [2]
1 | CN1CC[C@]23c4c5ccc(O)c4O[C@H]2[C@@H](O)C=C[C@H]3[C@H]1C5 [Morphine] | 8 | ten
2 | COC(=O)N1CCN(C(=O)Cc2ccc(Cl)c(Cl)c2)C(CN2CCCC2)C1 (racemic) [GR 89696] | 98 | 
